Source: ChEMBL document CHEMBL4364262 (J Med Chem, 2019)
Where a SMILES comes first, the peptide text is derived from it. Bridges are numbered along the chain shown (N, C = ends). [ ]: non-standard residue; d: D form. Nle(6-COOH) = N[C@@H](CCCCC(=O)O)C(=O)O; Nle = CCCC[C@H](N)C(=O)O

Key:
Type in all cases: cell-based
[1] = Antagonist activity at rat alpha6alpha3beta4 nAChR expressed in Xenopus laevis oocytes assessed as inhibition of Ach-induced response at -70 mV holding potential by two electrode voltage-clamp assay
[2] = biological target: T1, Neuronal acetylcholine receptor; alpha3/beta2 (Rattus norvegicus) (UniProt P04757+P12390); assay: Antagonist activity at rat alpha3beta2 nACHR expressed in Xenopus laevis oocytes assessed as Ach-induced current amplitude at 100 nM at -70 mV holding potential by two electrode voltage-clamp assay relative to control; design: scale not given: the % may be the effect or the level left
[3] = biological target: nicotinic acetylcholine receptor alpha6/alpha3/beta2/beta3 (Rattus norvegicus, UniProt P04757+P12390+P12391+P43143); assay: Antagonist activity at rat alpha6alpha3beta2beta3 nAChR expressed in Xenopus laevis oocytes assessed as Ach-induced current amplitude at 10 nM at -70 mV holding potential by two electrode voltage-clamp assay relative to control
[4] = biological target: T1, Neuronal acetylcholine receptor; alpha3/beta2 (Rattus norvegicus); assay: Antagonist activity at rat alpha3beta2 nACHR expressed in Xenopus laevis oocytes assessed as Ach-induced current amplitude at 10 nM at -70 mV holding potential by two electrode voltage-clamp assay relative to control

Sequence of nicotinic acetylcholine receptor alpha6/alpha3/beta2/beta3 (P04757 whole entry): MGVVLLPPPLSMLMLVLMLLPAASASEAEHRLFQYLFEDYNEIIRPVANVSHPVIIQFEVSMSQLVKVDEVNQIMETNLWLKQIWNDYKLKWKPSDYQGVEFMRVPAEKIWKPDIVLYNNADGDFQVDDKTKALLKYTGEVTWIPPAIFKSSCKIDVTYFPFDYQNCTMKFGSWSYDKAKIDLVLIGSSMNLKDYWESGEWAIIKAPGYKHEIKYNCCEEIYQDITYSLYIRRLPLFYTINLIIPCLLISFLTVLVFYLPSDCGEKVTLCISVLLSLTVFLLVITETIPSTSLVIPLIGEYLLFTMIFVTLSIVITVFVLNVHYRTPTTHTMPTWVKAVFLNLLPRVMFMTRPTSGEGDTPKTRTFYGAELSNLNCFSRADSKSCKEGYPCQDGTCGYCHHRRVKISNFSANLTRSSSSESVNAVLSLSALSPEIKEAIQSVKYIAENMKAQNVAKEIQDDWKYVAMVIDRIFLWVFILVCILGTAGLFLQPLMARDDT
Sequence of nicotinic acetylcholine receptor alpha6/alpha3/beta2/beta3 (P12390 whole entry): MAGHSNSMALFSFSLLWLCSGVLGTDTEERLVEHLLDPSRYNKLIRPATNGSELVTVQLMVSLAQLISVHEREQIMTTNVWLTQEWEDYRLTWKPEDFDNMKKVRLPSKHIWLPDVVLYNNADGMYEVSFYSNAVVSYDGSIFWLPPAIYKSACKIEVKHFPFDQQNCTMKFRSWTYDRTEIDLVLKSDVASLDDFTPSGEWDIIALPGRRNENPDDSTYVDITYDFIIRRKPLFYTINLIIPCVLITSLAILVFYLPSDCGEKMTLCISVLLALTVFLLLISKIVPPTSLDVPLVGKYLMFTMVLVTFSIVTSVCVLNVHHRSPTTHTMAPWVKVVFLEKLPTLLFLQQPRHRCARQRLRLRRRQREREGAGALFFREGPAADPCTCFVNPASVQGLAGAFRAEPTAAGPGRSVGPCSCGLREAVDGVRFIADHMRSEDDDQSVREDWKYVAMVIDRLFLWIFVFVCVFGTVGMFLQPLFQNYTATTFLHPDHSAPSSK
Sequence of nicotinic acetylcholine receptor alpha6/alpha3/beta2/beta3 (P12391 whole entry): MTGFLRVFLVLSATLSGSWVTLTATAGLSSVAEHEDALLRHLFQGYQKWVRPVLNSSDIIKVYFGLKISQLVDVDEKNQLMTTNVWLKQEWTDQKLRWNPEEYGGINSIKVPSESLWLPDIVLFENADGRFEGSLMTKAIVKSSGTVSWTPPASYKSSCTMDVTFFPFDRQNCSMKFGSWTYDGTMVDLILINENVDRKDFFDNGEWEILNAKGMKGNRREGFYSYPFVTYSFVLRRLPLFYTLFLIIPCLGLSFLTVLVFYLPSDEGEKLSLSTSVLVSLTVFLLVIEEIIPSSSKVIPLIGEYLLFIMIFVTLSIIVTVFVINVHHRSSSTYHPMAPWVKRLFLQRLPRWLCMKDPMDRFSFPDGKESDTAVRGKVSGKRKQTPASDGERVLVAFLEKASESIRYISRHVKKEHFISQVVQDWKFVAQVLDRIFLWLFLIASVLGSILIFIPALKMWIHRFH
Sequence of nicotinic acetylcholine receptor alpha6/alpha3/beta2/beta3 (P43143 whole entry): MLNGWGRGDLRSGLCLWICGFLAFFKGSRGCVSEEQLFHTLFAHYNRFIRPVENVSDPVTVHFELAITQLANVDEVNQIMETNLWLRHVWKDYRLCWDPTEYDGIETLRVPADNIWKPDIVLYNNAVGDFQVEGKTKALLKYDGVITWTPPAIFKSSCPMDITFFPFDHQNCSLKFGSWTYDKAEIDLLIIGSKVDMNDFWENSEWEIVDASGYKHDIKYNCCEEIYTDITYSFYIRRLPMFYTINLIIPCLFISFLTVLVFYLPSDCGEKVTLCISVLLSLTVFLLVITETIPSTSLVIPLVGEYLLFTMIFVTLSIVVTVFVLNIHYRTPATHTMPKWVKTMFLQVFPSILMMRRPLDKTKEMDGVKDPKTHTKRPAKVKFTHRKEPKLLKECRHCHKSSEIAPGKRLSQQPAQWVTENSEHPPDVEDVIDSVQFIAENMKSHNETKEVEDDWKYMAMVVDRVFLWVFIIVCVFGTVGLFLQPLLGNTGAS

Row | Compound | IC50 [1] | Activity [2] | inhibition at 0.01 µM [3] | inhibition [4]
1 | CC[C@H](C)[C@@H]1NC(=O)[C@H](CCC(=O)O)NC(=O)[C@@H]2CCCN2C(=O)[C@H](Cc2cnc[nH]2)NC(=O)[C@H](CCCCC(=O)O)NC(=O)[C@H]([C@@H](C)CC)NC(=O)[C@H](Cc2cnc[nH]2)NC(=O)[C@@H]2CSSC[C@H](NC(=O)CN)C(=O)N[C@@H](CSSC[C@@H](C(N)=O)NC1=O)C(=O)N[C@@H](CO)C(=O)N[C@@H](Cc1cnc[nH]1)C(=O)N1CCC[C@H]1C(=O)N[C@@H](C)C(=O)N2 (H-GCCSHPACHI[Nle(6-COOH)]HPEIC-NH2; disulfide 2-8, 3-16) | 77.3 nM |  |  | 
2 | CCCC[C@@H]1NC(=O)[C@H](Cc2cnc[nH]2)NC(=O)[C@@H]2CSSC[C@H](NC(=O)CN)C(=O)N[C@@H](CSSC[C@@H](C(N)=O)NC(=O)[C@H](CC(C)C)NC(=O)[C@H](CCC(=O)O)NC(=O)[C@@H]3CCCN3C(=O)[C@H](Cc3cnc[nH]3)NC(=O)[C@H](CCCCC(=O)O)NC1=O)C(=O)N[C@@H](CO)C(=O)N[C@@H](Cc1cnc[nH]1)C(=O)N1CCC[C@H]1C(=O)N[C@@H](C)C(=O)N2 (H-GCCSHPACH[Nle][Nle(6-COOH)]HPELC-NH2; disulfide 2-8, 3-16) | 120 nM |  |  | 
3 | CCCC[C@@H]1NC(=O)[C@H](Cc2cnc[nH]2)NC(=O)[C@@H]2CSSC[C@H](NC(=O)CN)C(=O)N[C@@H](CSSC[C@@H](C(N)=O)NC(=O)[C@H]([C@@H](C)CC)NC(=O)[C@H](CCC(=O)O)NC(=O)[C@@H]3CCCN3C(=O)[C@H](Cc3cnc[nH]3)NC(=O)[C@H](CCCCC(=O)O)NC1=O)C(=O)N[C@@H](CO)C(=O)N[C@@H](Cc1cnc[nH]1)C(=O)N1CCC[C@H]1C(=O)N[C@@H](C)C(=O)N2 (H-GCCSHPACH[Nle][Nle(6-COOH)]HPEIC-NH2; disulfide 2-8, 3-16) | 205 nM | 2% | 90% | 8%
4 | CC[C@H](C)[C@@H]1NC(=O)[C@H](Cc2cnc[nH]2)NC(=O)[C@@H]2CSSC[C@H](NC(=O)CN)C(=O)N[C@@H](CSSC[C@@H](C(N)=O)NC(=O)[C@H](CC(C)C)NC(=O)[C@H](CCC(=O)O)NC(=O)[C@@H]3CCCN3C(=O)[C@H](Cc3cnc[nH]3)NC(=O)[C@H](CCCCC(=O)O)NC1=O)C(=O)N[C@@H](CO)C(=O)N[C@@H](Cc1cnc[nH]1)C(=O)N1CCC[C@H]1C(=O)N[C@@H](C)C(=O)N2 (H-GCCSHPACHI[Nle(6-COOH)]HPELC-NH2; disulfide 2-8, 3-16) | 43.1 nM |  |  | 
